Test results as given in patent US11192920B2, “Peptides for binding to CD44v6 and use thereof” (KYUNGPOOK NATIONAL UNIVERSITY INDUSTRY-ACADEMIC COOPERATION …, priority 2017, dated 2021).

Experiments:
[1] = tested on: CD44 variant 6 expressing cells MDA-MB231, HELA, 4T1 and PANC-1; details: CD44v6 expressing cells
Procedure: (§1) After complete adhesion, the cell culture medium was replaced with fresh medium containing FITC labeled peptides (10 μM) and then the cells were incubated at 37° C. for 1 h and cells were washed with PBS for 3-5 min (thrice) and stained with CD44v6 antibody (Santa cruz), followed by Alexa 594-labeled goat anti-mouse IgG secondary antibody.
(§2) To screen CD44v6-binding peptides, the present inventors first prepared HEK-293 cells transfected with CD44v6-GFP plasmid by transient transfection. […] Twenty phage clones were randomly picked from the third, fourth, and fifth rounds and the peptide-coding DNA inserts of the phage clones were sequenced.

[2] = tested on: MCF-7; details: CD44v6 non-expressing cells
Procedure: as §1, §2

[3] = tested on: CD44v6 silenced MDA-MB-231 cells; details: for binding of FITC labelled peptide after silencing of CD44v6 gene (flow cytometry): MDA-MB-231, CD44v6 siRNA; for binding of FITC labelled peptide after siRNA treatment (immunofluorescence staining): MDA-MB-231, siRNA 100 nmol
Procedure: Control siRNA (50-[…] (dTdT) 30) and glyceraldehyde-3 phosphate dehydrogenase (GAPDH) siRNA (50-[…] (dTdT)-30) were also purchased from Bioneer, Daejeon, Korea. The transfection was performed using Lipofectamine 2000 (Invitrogen, Karlsruhe, Germany). Two rounds of transfection with an interval of 24 h between were performed. 48 h after the first transfection the cells were serum-starved for 24 h and then subjected to further treatment.
MDA-MB-231 cells were serum-starved for 24 hours and then subjected to further treatment. SiRNAs v6-1 and v6-2 transfected and kept it for different time interval to achieve the CD44v6 expression inhibition.

[4] = tested on: CD44v6; details: biotinylated peptide + avidin bead + cell lysate
Procedure: (§3) Biotinylated CD44v6 peptides was incubated with monomer avidin magnetic beads (Bioclone Inc.) for 30-60 min at room temperature with gentle rotation to be used for peptide pulldown, prior to incubation with cell lysates. Cells were lysed using cell lysis reagent (Thermo scientific) with protease inhibitors. After the first incubation of biotinylated peptide+avidin bead (complex 1) were washed with PBS and complex is incubated with cell lysate for 30-60 min at room temperature with gentle rotation. Bound biotinylated peptide+avidin bead+cell lysate (complex 2) were eluted by 1× blocking buffer/elution buffer for 5-10 min incubation after elution and the elute was subjected to western blot analysis using CD44v6 antibody (Millipore) to pull down the specific protein.
(§4) Biotinylated peptide+avidin bead+cell lysate (complex 2) were eluted for western blot analysis using CD44v6 antibody to pull down the specific protein.

[5] = biological target: wild-type CD44 (Homo sapiens, UniProt P16070); details: biotinylated peptide + avidin bead + cell lysate
wild-type CD44, sequence (P16070 21-361 isoform P16070-12 limits assumed): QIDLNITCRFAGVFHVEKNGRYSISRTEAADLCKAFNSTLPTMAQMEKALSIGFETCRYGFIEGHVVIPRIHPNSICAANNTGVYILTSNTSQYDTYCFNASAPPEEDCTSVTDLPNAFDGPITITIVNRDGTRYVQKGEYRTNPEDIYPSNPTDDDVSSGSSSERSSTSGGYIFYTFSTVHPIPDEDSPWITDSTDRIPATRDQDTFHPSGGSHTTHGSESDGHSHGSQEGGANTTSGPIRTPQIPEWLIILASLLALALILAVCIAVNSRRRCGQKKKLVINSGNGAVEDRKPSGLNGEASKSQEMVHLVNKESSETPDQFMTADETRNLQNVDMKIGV
Procedure: as §3, §4

[6] = tested on: MDA-MB-231 tumor model; assay: MDA-MB-231 lung metastasis model; format: in vivo, mice; details: peptide i.v. 14.2 mg/g 3 times a week for 3 weeks; crizotinib oral 25 mg/kg; vs saline and control peptide
Procedure: (§5) For animal models, 6-week-old to 8-week-old Balb/c female mice were purchased from Orient Bio. Mice were cared for and maintained in conformance with the Guidelines of the Institutional Animal Care and Use Committee (IACUC) of Kyungpook National University. Tumors were prepared by injecting 1×10^6 MDA-MB-231 cells via tail vein to develop lung metastatic model in Balb/c female nude mice and 1×10^6 4T1 cells into the lower left mammary fat pad of Balb/c wild type female mice.
(§6) Tumor-bearing mice were subjected to randomization and grouping when the size of the tumors reached approximately 100 mm^3. Each peptide was intravenously injected via the tail vein of mice ([…] of body weight, 3 times a week for 3 weeks). Crizotinib was given through orally (25 mg/kg of body weight, three times a week for 3 weeks) based on a previous study. Tumor size was measured using a digital caliper, and tumor volume was calculated using the following formula: Volume=(L×W×H)/2 (L: length, longest dimension, W: width, shorter dimension, parallel to the mouse body, and H: height, perpendicular to the length and width). Mice were checked for tumor ulceration. At the end of the treatment, the mice were sacrificed, and the lung and liver were isolated and checked for metastatic tumor masses.
MDA-MB231-luc cells (1×10^6 in 0.1 ml PBS) were injected into the lateral tail vein of female nude mice. The mice were then segregated into groups (n=10 per group) based on initial IVIS image. Starting from day 0, mice were administered CD44v6 peptides by intravenously injected via the tail vein of mice ([…] of body weight, 3 times a week for 3 weeks). After the last IVIS imaging, mice were euthanized and lung tissues were removed from each mouse for metastatic tumor masses immunohistochemical analyses.
(§7) At the end of the treatment, mouse blood was collected and hematological factors were analyzed by DGMIF (Daegu-Gyeongbuk Medical Innovation Foundation) (Daegu, Korea).
CD44v6 Peptides was stable without degradation for at least 24 hours in the presence of serum.

[7] = tested on: 4T1 tumor model; assay: Anti-tumor therapy in 4T1 tumor model; format: in vivo, mice; details: for tumor and metastatic growth (bioluminescence imaging): peptide i.v. 14.2 mg/kg thrice a week, crizotinib oral 25 mg/kg thrice a week, vs saline
Procedure: as §5, §6, §7
In vivo anti-tumor activity was further evaluated in 4T1 orthotopic mice models. In relevant with the biodistribution and pharmacokinetic results, in vivo therapy was started by administrating 14.2 mg/kg thrice a week via intravenous injection of CD44v6 peptides and 25 mg/kg crizotinib thrice a week orally.

[8] = tested on: MDA-MB-231 cells; details: MDA-MB-231, dose-dependent
[9] = tested on: MCF-7 cells
[10] = tested on: c-Met and Erk phosphorylation in MDA-MB-231 cells; details: MDA-MB-231, HGF 25-50 ng/mL; peptides 5 ug/ml each, combination 10 μg/ml
Procedure: Serum-starved cells (24 hours) were induced with the growth factor HGF (25-50 ng/mL), at 37° C. for 10 min. Where indicated, the cells were treated with a CD44v6 specific peptide or a control peptide (50 μg/ml) at 37° C. for 10 min before induction and cells were washed with ice-cold phosphate-buffered saline (PBS). To detect activated Erk and activated c-Met, cells were lysed in boiling sodium dodecyl sulfate (SDS) sample buffer containing 100 mM dithiothreitol (DTT) and subjected to Western blot analysis using antibodies against phosphorylated Erk and phosphorylated c-Met. The loading control was performed on the same blot, stripped (62.5 mM Tris, pH 6.8, 2% SDS, 0.8% DTT), and probed with the Erk and c-Met antibodies. Blots were stained using the enhanced chemiluminescence system (Thermo Fisher Scientific). Bands in Western blot analysis were quantified with the program ImageJ (National Institutes of Health).
In the present invention, MDA-MB-231 and 4T1 cells were serum-starved (24 hours) and were induced with the growth factor HGF (25-50 ng/mL) at 37° C. for 10 min. The cells were treated with a CD44v6 specific peptide or a control peptide (100 ng/ml) at 37° C. for 10 min before induction. To detect activated Erk and activated c-Met, cells were lysed and subjected to Western blot analysis using antibodies against phosphorylated Erk and phosphorylated c-Met. […]

[11] = tested on: c-Met; details: biotinylated peptide + avidin bead + cell lysate
[12] = tested on: MDA-MB-231 xenograft; details: anti-CD44v6 antibody staining
Procedure: Tumor tissues were further fixed with 4% paraformaldehyde overnight and rapidly frozen. Tissue slices (8-μm thick) were prepared using a cryo-microtome and stained with CD44v6 antibody (Santa Cruz), followed by Alexa 594-labeled goat anti-mouse IgG secondary antibody.

[13] = tested on: 4T1 orthotopic mice; details: anti-CD44v6 antibody staining
Procedure: To analyze ex vivo organ distribution, animals were euthanized at 6 h post-injection with CO2. All major organs (liver, kidney, spleen, heart, and lung) along with tumor tissues were isolated and washed in PBS and ex vivo fluorescence images were taken using the IVIS Lumina III imaging system. Fluorescence intensity within the region of interest (ROI) of each organs was analyzed. Tumor tissues were further fixed with 4% paraformaldehyde overnight and rapidly frozen. Tissue slices (8-μm thick) were prepared using a cryo-microtome and stained with CD44v6 antibody (Santa Cruz), followed by Alexa 594-labeled goat anti-mouse IgG secondary antibody. […]
In vivo fluorescence images were taken before or after injection at various time points (1, 2, 4 and 6 h, respectively) with flamma 675 was injected at the same concentration and method. […]
Ex vivo fluorescence images of excised tumor and organs collected at 6 h post-injection. All major organs (liver, kidney, spleen, heart, and lung) along with tumor tissues were isolated and washed in PBS and ex vivo fluorescence images were taken (n=3) with FPR-675 fluorophore excitation at 675 nm and emission at 698 nm. Fluorescence intensity within the region of interest (ROI) of each organ was analyzed.

CD44v6, sequence (P16070 386-428 limits assumed): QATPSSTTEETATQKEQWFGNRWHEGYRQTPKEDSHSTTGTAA

Row | Molecule | binding to MDA-MB-231, 4T1 and PANC-1 [1] | binding to MCF-7 [2] | binding of FITC labelled peptide after silencing of CD44v6 gene (flow cytometry) [3] | binding of FITC labelled peptide after siRNA treatment (immunofluorescence staining) [3] | pull down of CD44v6 [4] | pull down of wild-type CD44 [5] | metastasis (bioluminescence imaging) [6] | tumor and metastatic growth (bioluminescence imaging) [7] | binding of FITC labelled peptide after pre-treatment with anti-CD44v6 blocking antibody [8] | binding of FITC labelled peptide after pre-treatment with anti-CD44v6 blocking antibody [9] | phosphorylation of c-Met and its downstream target Erk [10] | pull down of c-Met [11] | immunohistochemical examination of tumor tissues [12] | immunohistochemical examination of tumor tissues [13] | tumor growth (tumor volume) ([7]; 4T1 bearing mice)
1 | CNLNTIDTC [v6Pep-1] | bind specifically | did not show specific binding | binding got inhibited | negligible binding | pulled down | not pulled down | inhibited metastatic growth | slightly inhibited tumor and metastatic growth | significantly reduced the binding | minimal effect | drastically reduced the phosphorylation | pulled down | co-localized with CD44v6 | co-localized with CD44v6 | –
2 | CNEWQLKSC [v6Pep-2] | bind specifically | did not show specific binding | binding got inhibited | negligible binding | pulled down | not pulled down | inhibited metastatic growth | slightly inhibited tumor and metastatic growth | significantly reduced the binding | minimal effect | drastically reduced the phosphorylation | – | co-localized with CD44v6 | co-localized with CD44v6 | –
3 | C[C@@H](Oc1cc(-c2cnn(C3CCNCC3)c2)cnc1N)c1c(Cl)ccc(F)c1Cl [crizotinib, reference compound] | – | – | – | – | – | – | inhibited metastatic growth | slightly inhibited tumor and metastatic growth | – | – | – | – | – | – | Slight reduction of tumor volume
